Assay results: patent US7531507B2, “Acylated nonadepsipeptides containing pyridyl alanine residues” (AiCuris GmbH & Co. KG, priority 2004, dated 2009)
Converted amounts (≈) assume the structure as drawn. Where a name gives a salt, the structure may show the parent alone. Read-outs that look alike come from different tables or passages of the source. Starred links: 1 amine or outer side, 2 acyl side, 3 side chain; linkers in the order of their positions; H or OH if unused. Positions of bridges follow the written chain, without caps; N, C: chain ends. Non-standard residues stand in square brackets, D forms with d. Residues, ends and D or L forms follow the SMILES beside them. *: point of attachment. X3 = CCC(C)(C)C[C@@H](N)C(=O)N[C@@H](Cc1cccnc1)C(=O)N[C@H](C(N)=O)[C@H](O*)c1ccccc1; Phe(3R-OH) = O=C([C@@H](N[*:1])[C@H](O[*:3])c1ccccc1)[*:2]; Asn(3S-OH) = NC(=O)[C@@H](O)[C@H](N)C(=O)O; Leu(3R-OH) = CC(C)[C@@H](O)[C@H](N)C(=O)O; dAla(TMS) = C[Si](C)(C)C[C@@H](N)C(=O)O; X1 = CC(C)[C@@H](O)[C@H](C)C(=O)*; 3Pal = N[C@@H](Cc1cccnc1)C(=O)O; aThr = C[C@H](O)[C@H](N)C(=O)O

How the values were obtained:
[1] = test system: Staphylococcus aureus 133; assay type: cell-based
Method: (§1) Determination of the Minimum Inhibitory Concentration (MIC):
(§2) The MIC is determined in the liquid dilution test in accordance with the NCCLS guidelines. Overnight cultures of Staphylococcus aureus 133, Enterococcus faecalis 27159, E. faecium 4147 and Streptococcus pneumoniae G9a are incubated with the described test substances in a 1:2 dilution series. The MIC determination is carried out with a cell count of 10^5 microbes per ml in Isosensitest medium (Difco, Irvine/USA), with the exception of S. pneumoniae which is tested in BHI broth (Difco, Irvine/USA) with 10% bovine serum with a cell count of 10^6 microbes per ml. The cultures are incubated at 37° C. for 18-24 hours, S. pneumoniae in the presence of 10% CO2.
(§3) The MIC is defined as the lowest concentration of each substance at which visible bacterial growth no longer occurs. The MIC values are reported in μg/ml.

[2] = test system: Streptococcus pneumoniae G9a; assay type: cell-based
Method: as §1, §2, §3

E. faecalis ICB 27159 = assay type: cell-based, Enterococcus faecalis
Method: as §1, §2, §3

[3] = Determination of the free fraction (fu) in plasma via Transil or ultrafiltration; assay type: in vitro ADME, rat
Method: Principle of the Determination of the Free Fraction via Transil:
The method described herein for determining the free fraction (fu) of a test substance is divided into 2 parts:
a) Determination of the Transil®/buffer partitioning ratio (MAbuffer) by incubating the test substance in a Transil® buffer (pH 7.4) dispersion and subsequently determining the concentration in the dispersion and in the buffer supernatant.
b) Determination of the Transil®/plasma partitioning ratio (MAplasma) by incubating the test substance in a Transil® plasma dispersion and subsequently determining the concentration in the dispersion and in the plasma.
The quotient of the two partitioning ratios gives fu.
Where substances are highly protein-bound, the plasma is usually diluted with isotonic phosphate buffer (pH 7.4) and then suspended with Transil®. Determination of fu′ (free fraction in diluted plasma) in this diluted protein solution takes place in analogy to the determination of fu. The free fraction in undiluted plasma is calculated from fu′ and the dilution factor.
Concerning this method, compare also: Schuhmacher, Joachim; Kohlsdorfer, Christian; Buehner, Klaus; Brandenburger, Tim; Kruk, Renate, “High-throughput determination of the free fraction of drugs strongly bound to plasma proteins.” Journal of Pharmaceutical Sciences 2004, 93, 816-830.
Determination of the Membrane Affinity of a Test Substance After Partitioning Between Transil® and Buffer (MAbuffer):
All incubations are carried out in suitable glass vessels, e.g. glass vials, ground-joint test tubes. The total volume is usually 0.5-5 ml, and the Transil® volume is 10-100 μl. If the membrane affinities are expected to be high, the Transil® dispersion can be diluted up to 20 times with phosphate buffer of pH 7.4, e.g. Dulbecco's PBS. Phosphate buffer of pH 7.4 is introduced into the incubation vessels, and the Transil® is pipetted in after thorough mixing. The test substance is pipetted in at a concentration of, for example, 200 ng/ml, n=6. The proportion of organic solvents should be ≦2%. The mixtures are incubated at room temperature i.e. on a mini-shaker at an angle of about 45°, at about 400 rpm for 30 min. The 100% value is determined by taking at least one aliquot of, for example, 100 μl, and the remaining mixture is centrifuged at about 1800 g for about 10 min. […]
The plasma of the species to be investigated is filtered through a semipermeable membrane. The concentration of substance in the filtrate is measured, and the free fraction fU is calculated therefrom. […] The concentration of substance in the ultrafiltrate (Cu, unbound substance concentration) and in the plasma before centrifugation (C; total substance concentration) is measured. The free fraction is calculated by the formula fu (%)=Cu/C*100.

E. faecium L4001 = assay type: cell-based, Enterococcus faecium; details: Isosensitest medium, 10^5 microbes per ml, 37° C., 18-24 hours
[4] = Isosensitest medium, 10^5 microbes per ml, 37° C., 18-24 hours
[5] = BHI broth with 10% bovine serum, 10^6 microbes per ml, 37° C., 18-24 hours, 10% CO2
[6] = free fraction in rat plasma, read-out: fu (rat)
[7] = Isosensitest medium, 10^5 microbes per ml, 37° C., 18-24 hours, trishydrochloride

Structure (SMILES): CC[C@H](C)[C@@H]1NC(=O)[C@@H](CCCNC(=N)N)NC(=O)[C@H](CC(C)C)NC(=O)[C@H]([C@H](O)C(C)C)NC(=O)[C@@H](NC(=O)[C@H](CC(C)C)NC(=O)[C@H](N)CC(C)C)[C@@H](c2ccccc2)OC(=O)[C@H](CO)NC(=O)[C@H]([C@H](O)C(N)=O)NC(=O)CNC(=O)[C@H]([C@H](C)O)NC1=O [Example 1A, D-Leucyl-N^1-4-{(3S,6S,12S,15S,18R,21S,24S,27S,28R)-6-[(1S)-2-amino-1-hydroxy-2-oxoethyl]-18-(3-{[amino(imino)methyl]amino}propyl)-12-[(1S)-1-hydroxyethyl]-3-(hydroxymethyl)-24-[(1R)-1-hydroxy-2-methylpropyl]-21-isobutyl-15-[(1S)-1-methylpropyl]-2,5,8,11,14,17,20,23,26-nonaoxo-28-phenyl-1-oxa-4,7,10,13,16,19,22,25-octaazacyclooctacosan-27-yl}-L-leucinamide bistrifluoroacetate (lysobactin), reference compound] (H-[dL]L[Phe(3R-OH)][Leu(3R-OH)]L[dR]I[aThr]G[Asn(3S-OH)]S; ester 3-C)
- MIC S. aureus 133 [1, 4]: 0.5 µg/mL (≈ 0.392 µM)
- MIC S. pneumoniae G9a [2, 5]: 0.063 µg/mL (≈ 0.0494 µM)
- MIC E. faecalis ICB 27159 (E. faecalis ICB 27159; [4]): 0.5 µg/mL (≈ 0.392 µM)
- fraction unbound at 30 min [3, 6]: 0.0067
- MIC E. faecium L4001 (E. faecium L4001): 0.5 µg/mL (≈ 0.392 µM)

Structure (SMILES): CC[C@H](C)[C@@H]1NC(=O)[C@@H](CCCNC(=N)N)NC(=O)[C@H](CC(C)C)NC(=O)[C@H]([C@H](O)C(C)C)NC(=O)[C@@H](NC(=O)[C@H](Cc2cccnc2)NC(=O)[C@H](N)C[Si](C)(C)C)[C@@H](c2ccccc2)OC(=O)[C@H](CO)NC(=O)[C@H]([C@H](O)C(N)=O)NC(=O)CNC(=O)[C@H]([C@H](C)O)NC1=O [Example 2, 3-(Trimethylsilyl)-D-alanyl-3-(pyridin-3-yl)-L-alanyl-de(1-D-leucyl-2-L-leucyl)-lysobactin tristrifluoroacetate] (H-[dAla(TMS)][3Pal][Phe(3R-OH)][Leu(3R-OH)]L[dR]I[aThr]G[Asn(3S-OH)]S; ester 3-C)
- MIC S. aureus 133 [1, 4]: 0.125 µg/mL (≈ 0.0932 µM)
- MIC S. pneumoniae G9a [2, 5]: 0.125 µg/mL (≈ 0.0932 µM)
- MIC E. faecalis ICB 27159 (E. faecalis ICB 27159; [4]): 0.5 µg/mL (≈ 0.373 µM)
- fraction unbound at 30 min [3, 6]: 0.123
- MIC E. faecium L4001 (E. faecium L4001): 1 µg/mL (≈ 0.745 µM)

Structure (SMILES): CC[C@H](C)[C@@H]1NC(=O)[C@@H](CCCNC(=N)N)NC(=O)[C@H](CC(C)C)NC(=O)[C@H]([C@H](O)C(C)C)NC(=O)[C@@H](NC(=O)[C@H](Cc2cccnc2)NC(=O)[C@H](N)C[Si](C)(C)C)[C@@H](c2ccccc2)OC(=O)[C@H](CO)NC(=O)[C@H]([C@H](O)C(N)=O)NC(=O)CNC(=O)[C@H]([C@H](C)O)NC1=O [Example 3, 3-(Trimethylsilyl)-D-alanyl-3-(pyridin-3-yl)-L-alanyl-de(1-D-leucyl-2-L-leucyl)-lysobactin trismethanesulphonate] (H-[dAla(TMS)][3Pal][Phe(3R-OH)][Leu(3R-OH)]L[dR]I[aThr]G[Asn(3S-OH)]S; ester 3-C)
- MIC S. aureus 133 [1, 4]: 0.5 µg/mL

Structure (SMILES): CC[C@H](C)[C@H](NC(=O)[C@@H](CCCNC(=N)N)NC(=O)[C@H](CC(C)C)NC(=O)[C@@H](C)[C@H](O)C(C)C)C(=O)N[C@H](C(=O)NCC(=O)N[C@H](C(=O)N[C@@H](CO)C(=O)O[C@H](c1ccccc1)[C@H](NC(=O)[C@H](Cc1cccnc1)NC(=O)[C@H](N)CC(C)(C)CC)C(N)=O)[C@H](O)C(N)=O)[C@H](C)O.O=C(O)C(F)(F)F.O=C(O)C(F)(F)F.O=C(O)C(F)(F)F [Example 4, 4,4-Dimethyl-D-norleucyl-3-(pyridin-3-yl)-L-alanyl-de(1-D-leucyl-2-L-leucyl)lysobactin tristrifluoroacetate] (X1-L[dR]I[aThr]G[Asn(3S-OH)]S-X3)
- MIC S. aureus 133 [1]; 133: 0.25 µg/mL
- MIC S. pneumoniae G9a ([2]; G9a): 0.125 µg/mL
- MIC E. faecalis ICB 27159 (E. faecalis ICB 27159; ICB 27159): 1 µg/mL
- fraction unbound at 30 min ([3]; rat, plasma): 0.061

Structure (SMILES): CC[C@H](C)[C@@H]1NC(=O)[C@@H](CCCNC(=N)N)NC(=O)[C@H](CC(C)C)NC(=O)[C@H]([C@H](O)C(C)C)NC(=O)[C@@H](NC(=O)[C@H](Cc2cccnc2)NC(=O)[C@H](N)C[Si](C)(C)C)[C@@H](c2ccccc2)OC(=O)[C@H](CO)NC(=O)[C@H]([C@H](O)C(N)=O)NC(=O)CNC(=O)[C@H]([C@H](C)O)NC1=O [Example 6, (Trimethylsilyl)-D-alanyl-3-(pyridin-3-yl)-L-alanyl-de(1-D-leucyl-2-L-leucyl)lysobactin trishydrochloride] (H-[dAla(TMS)][3Pal][Phe(3R-OH)][Leu(3R-OH)]L[dR]I[aThr]G[Asn(3S-OH)]S; ester 3-C)
- MIC S. aureus 133 [1, 7]: <0.063 µg/mL
- MIC S. pneumoniae G9a ([2]; BHI broth with 10% bovine serum, 10^6 microbes per ml, 37° C., 18-24 hours, 10% CO2, trishydrochloride): <0.063 µg/mL
- MIC E. faecalis ICB 27159 (E. faecalis ICB 27159; [7]): 1 µg/mL

Structure (SMILES): CC[C@H](C)[C@@H]1NC(=O)[C@@H](CCCNC(=N)N)NC(=O)[C@H](CC(C)C)NC(=O)[C@H]([C@H](O)C(C)C)NC(=O)[C@@H](NC(=O)[C@H](Cc2cccnc2)NC(=O)[C@H](N)C[Si](C)(C)C)[C@@H](c2ccccc2)OC(=O)[C@H](CO)NC(=O)[C@H]([C@H](O)C(N)=O)NC(=O)CNC(=O)[C@H]([C@H](C)O)NC1=O [Example 7, (Trimethylsilyl)-D-alanyl-3-(pyridin-3-yl)-L-alanyl-de(1-D-leucyl-2-L-leucyl)lysobactin tris-L-lactate] (H-[dAla(TMS)][3Pal][Phe(3R-OH)][Leu(3R-OH)]L[dR]I[aThr]G[Asn(3S-OH)]S; ester 3-C)
- MIC S. aureus 133 [1, 4]: 0.063 µg/mL (≈ 0.047 µM)
- MIC E. faecalis ICB 27159 (E. faecalis ICB 27159; [4]): 1 µg/mL (≈ 0.745 µM)

Structure (SMILES): CC[C@H](C)[C@@H]1NC(=O)[C@@H](CCCNC(=N)N)NC(=O)[C@H](CC(C)C)NC(=O)[C@H]([C@H](O)C(C)C)NC(=O)[C@@H](NC(=O)[C@H](Cc2cccnc2)NC(=O)[C@H](N)C[Si](C)(C)C)[C@@H](c2ccccc2)OC(=O)[C@H](CO)NC(=O)[C@H]([C@H](O)C(N)=O)NC(=O)CNC(=O)[C@H]([C@H](C)O)NC1=O [Example 8, (Trimethylsilyl)-D-alanyl-3-(pyridin-3-yl)-L-alanyl-de(1-D-leucyl-2-L-leucyl)lysobactin tris-D-tartrate] (H-[dAla(TMS)][3Pal][Phe(3R-OH)][Leu(3R-OH)]L[dR]I[aThr]G[Asn(3S-OH)]S; ester 3-C)
- MIC S. aureus 133 [1, 4]: 0.25 µg/mL (≈ 0.186 µM)
- MIC E. faecalis ICB 27159 (E. faecalis ICB 27159; [4]): 2 µg/mL (≈ 1.49 µM)
